In US20240408222A1, “COMPOUNDS, PHARMACEUTICAL COMPOSITIONS, AND METHODS FOR THE TREATMENT, PREVENTION, OR MANAGEMENT OF HYPERPRO[…]” (VINCERX PHARMA GMBH, priority 2021, published 2024):
Counter-ions that a name gives are not always drawn.

Columns and labels:
NCI H292 [1] = test: Cytotoxicity in vitro (MTT) in presence/absence of elastase; type: cell-based, human; settings: 72 h
Method: (§1) Cultivation of cells was performed according to standard procedures with the media recommended by the provider. The cells, in a total volume of 100 μL, were seeded in a 96-well plate with a white bottom (#3610). After a 24 h incubation period at 37° C. and […], the medium was exchanged by adding 90 μL fresh medium. The treatment started by adding the test compound in 10 μL of culture medium to the cells in triplicates. Concentrations ranging from 10^−5 M to 10^−13 M were chosen. Two identically treated sets of samples were prepared. One set was treated with the test compound alone, whereas to the second set the compound and 10 nM elastase was added followed by a 72 h incubation period at 37° C. and […]. The proliferation was detected using the MTT assay (ATCC). At the end of the incubation period the MTT reagent was added to all samples for 4 h. Lysis of the cells followed by addition of the detergent was done overnight. The formed dye was detected at 570 nm. The proliferation of untreated but otherwise identically handled cells was define as the 100% value.

HT29 [2] = test: as above; type: cell-based, human; settings: 72 h
Method: as §1

786-O [3] = test: as above; type: cell-based, human; settings: 72 h
Method: as §1

SUM149 [4] = test: Cytotoxicity assay (Version 2, automated, AC50) with/without neutrophil elastase; type: cell-based; settings: Version 2, activity concentration at −50%
Method: as §1
(§2) The cytotoxicity assay (Version 2) was performed as described above. Some changes were applied as the assays were performed in an automated fashion and the IC50 values determination was changed. Here the change in metabolic activity of the cells, in percent, was calculated by normalization of the measured values to the absorbance values of medium containing wells without cells (═−100%) and the absorbance of the DMSO-treated cells (═0%). AC50 values (activity concentration at −50%) were determined by means of a 4 parameter Hill-fit using GeneData Screener software.

NCI H292 [5] = test: as above; type: cell-based, human; settings: Version 2, activity concentration at −50%
Method: as §1, §2

HT29 [6] = test: as above; type: cell-based, human; settings: Version 2, activity concentration at −50%
Method: as §1, §2

786-O [7] = test: as above; type: cell-based, human; settings: Version 2, activity concentration at −50%
Method: as §1, §2

SUM149 [8] = test: Cytotoxicity in vitro (MTT) in presence/absence of elastase; type: cell-based; settings: 72 h
Method: as §1

[9] = NCI H292, with (+) 10 nM neutrophil elastase
[10] = NCI H292, without (−) neutrophil elastase
[11] = HT29, with (+) 10 nM neutrophil elastase
[12] = HT29, without (−) neutrophil elastase
[13] = with (+) 10 nM neutrophil elastase
[14] = without (−) neutrophil elastase
[15] = SUM149, with (+) neutrophil elastase
[16] = SUM149, without (−) neutrophil elastase
[17] = NCI H292, with (+) neutrophil elastase
[18] = HT29, with (+) neutrophil elastase
[19] = SUM149, with (+) 10 nM neutrophil elastase

| Molecule | IC50 (NCI H292 [1]; [9]) | IC50 (NCI H292 [1]; [10]) | IC50 (HT29 [2]; [11]) | IC50 (HT29 [2]; [12]) | IC50 (786-O [3]; [13]) | IC50 (786-O [3]; [14]) | AC50 (SUM149 [4]; [15]) | AC50 (SUM149 [4]; [16]) | AC50 (NCI H292 [5]; [17]) | AC50 (NCI H292 [5]; [10]) | AC50 (HT29 [6]; [18]) | AC50 (HT29 [6]; [12]) | AC50 (786-O [7]; with (+) neutrophil elastase) | AC50 (786-O [7]; [14]) | IC50 (SUM149 [8]; [19]) | IC50 (SUM149 [8]; [16]) |
| --- | --- | --- | --- | --- | --- | --- | --- | --- | --- | --- | --- | --- | --- | --- | --- | --- |
| CCCNC(=O)Nc1cccc(S(=O)(=O)Nc2cccc([C@@H](CC(=O)O)NC(=O)Nc3ccc(NC(=O)NCCOCCOCCOCCC(=O)N[C@@H](CC(=O)O)C(=O)N4CCC[C@H]4C(=O)N[C@H](C(=O)N=S(C)(=O)Cc4cccc(Nc5ncnc(-c6ccc(F)cc6OC)n5)c4)C(C)C)cc3)c2)c1 (relative stereo) [Compound 1, disodium 1-[(2S)-2-(carboxylatomethyl)-17-{4-[({(1R)-2-carboxylato-1-[3-({3-[(propylcarbamoyl)amino]benzene-1-sulfonyl}amino)phenyl]ethyl}carbamoyl)amino]anilino}-4,17-dioxo-7,10,13-trioxa-3,16-diazaheptadecanan-1-oyl]-L-prolyl-N—[(R*)-[(3-{[4-(4-fluoro-2-methoxyphenyl)-1,3,5-triazin-2-yl]amino}phenyl)methyl](methyl)oxo-lambda^6-sulfanylidene]-L-valinamide] | 11 to 100 nM | > 100 nM | 11 to 100 nM | > 100 nM | 11 to 100 nM | 11 to 100 nM | 100 to 1000 nM | > 1000 nM | 11 to 100 nM | > 1000 nM | > 1000 nM | > 1000 nM | > 1000 nM | > 1000 nM | 11 to 100 nM | > 100 nM |
| CCCNC(=O)Nc1cccc(S(=O)(=O)Nc2cccc([C@@H](CC(=O)O)NC(=O)Nc3ccc(NC(=O)NCCOCCOCCOCCC(=O)N[C@@H](CC(=O)O)C(=O)N4CCC[C@H]4C(=O)N[C@H](C(=O)N=S(C)(=O)Cc4ccnc(Nc5cc(-c6ccc(F)cc6OC)c(F)cn5)c4)C(C)C)cc3)c2)c1 (relative stereo) [Compound 2, disodium 1-[(2S)-2-(carboxylatomethyl)-17-{4-[({(1R)-2-carboxylato-1-[3-({3-[(propylcarbamoyl)amino]benzene-1-sulfonyl}amino)phenyl]ethyl}carbamoyl)amino]anilino}-4,17-dioxo-7,10,13-trioxa-3,16-diazaheptadecanan-1-oyl]-L-prolyl-N—[(S*)-[(2-{[5-fluoro-4-(4-fluoro-2-methoxyphenyl)pyridin-2-yl]amino}pyridin-4-yl)methyl](methyl)oxo-lambda^6-sulfanylidene]-L-valinamide] | 11 to 100 nM | > 100 nM | 1.1 to 10 nM | > 100 nM | 11 to 100 nM | > 100 nM | 100 to 1000 nM | 100 to 1000 nM | 100 to 1000 nM | > 1000 nM | 100 to 1000 nM | 100 to 1000 nM | 100 to 1000 nM | 100 to 1000 nM | 11 to 100 nM | > 100 nM |
| CCCNC(=O)Nc1cccc(S(=O)(=O)Nc2cccc([C@@H](CC(=O)O)NC(=O)Nc3ccc(NC(=O)N(C)CCN(C)CCN(C)CC(=O)N[C@@H](CC(N)=O)C(=O)N4CCC[C@H]4C(=O)N[C@H](C(=O)N=S(C)(=O)Cc4cc5cc(c4)OC(C)CCOc4cc(F)ccc4-c4nc(ncc4F)N5)C(C)C)cc3)c2)c1 (relative stereo) [Compound 6] | ≤ 1 nM | > 100 nM | ≤ 1 nM | > 100 nM | – | – | ≤ 10 nM | ≤ 10 nM | ≤ 10 nM | 100 to 1000 nM | ≤ 10 nM | ≤ 10 nM | ≤ 10 nM | ≤ 10 nM | ≤ 1 nM | 11 to 100 nM |
| CCCNC(=O)Nc1cccc(S(=O)(=O)Nc2cccc([C@@H](CC(=O)O)NC(=O)Nc3ccc(NC(=O)NCCN(C)CCN(C)CCN(C)CC(=O)N[C@@H](CC(N)=O)C(=O)N4CCC[C@H]4C(=O)N[C@H](C(=O)N=[S@@](C)(=O)Cc4cc5cc(c4)OCCCCCNc4cc(ccc4F)-c4nc(ncc4F)N5)C(C)C)cc3)c2)c1 (relative stereo) [Compound 15] | ≤ 1 nM | 11 to 100 nM | ≤ 1 nM | > 100 nM | ≤ 1 nM | > 100 nM | 100 to 1000 nM | 100 to 1000 nM | 11 to 100 nM | 100 to 1000 nM | 100 to 1000 nM | 100 to 1000 nM | 100 to 1000 nM | 100 to 1000 nM | ≤ 1 nM | 11 to 100 nM |
| CCCNC(=O)Nc1cccc(S(=O)(=O)Nc2cccc([C@@H](CC(=O)O)NC(=O)Nc3ccc(NC(=O)NCCOCCOCCOCCC(=O)N[C@@H](CC(=O)OCCC[N+](C)(C)C)C(=O)N4CCC[C@H]4C(=O)N[C@H](C(=O)N=S(C)(=O)Cc4cc5cc(c4)OCCCCOc4cc(F)ccc4-c4nc(ncc4F)N5)C(C)C)cc3)c2)c1 (single isomer, unassigned) [Compound 20, trifluoroacetate] | – | – | – | – | – | – | 11 to 100 nM | 100 to 1000 nM | 11 to 100 nM | > 1000 nM | 11 to 100 nM | > 1000 nM | 11 to 100 nM | > 1000 nM | – | – |
| CCCNC(=O)Nc1cccc(S(=O)(=O)Nc2cccc([C@@H](CC(=O)O)NC(=O)Nc3ccc(NC(=O)NCCOCCOCCOCCC(=O)N[C@@H](CC(=O)OCCCCN(C)C)C(=O)N4CCC[C@H]4C(=O)N[C@H](C(=O)N=S(C)(=O)Cc4cc5cc(c4)OCCCCOc4cc(F)ccc4-c4nc(ncc4F)N5)C(C)C)cc3)c2)c1 (single isomer, unassigned) [Compound 21] | – | – | – | – | – | – | 11 to 100 nM | 100 to 1000 nM | 11 to 100 nM | 100 to 1000 nM | 11 to 100 nM | > 1000 nM | 11 to 100 nM | > 1000 nM | – | – |
| CCCNC(=O)Nc1cccc(S(=O)(=O)Nc2cccc([C@@H](CC(=O)O)NC(=O)Nc3ccc(NC(=O)NCCN(C)CCN(C)CCN(C)CC(=O)N[C@@H](CC(N)=O)C(=O)N4CCC[C@H]4C(=O)N[C@H](C(=O)N=[S@@](C)(=O)Cc4cc5cc(c4)O[C@@H](C)CCOc4cc(F)ccc4-c4nc(ncc4F)N5)C(C)C)cc3)c2)c1 (single isomer, unassigned) [Compound 24] | – | – | – | – | – | – | ≤ 10 nM | 100 to 1000 nM | ≤ 10 nM | 100 to 1000 nM | ≤ 10 nM | 100 to 1000 nM | ≤ 10 nM | 100 to 1000 nM | – | – |
| CCCNC(=O)Nc1cccc(S(=O)(=O)Nc2cccc([C@@H](CC(=O)O)NC(=O)Nc3ccc(NC(=O)NCCOCCOCCOCCC(=O)NCCNC(=O)CC[C@H](NC(=O)CCCC(=O)NCCN(C)CCN(C)CCN(C)CC(=O)N[C@@H](CC(N)=O)C(=O)N4CCC[C@H]4C(=O)N[C@H](C(=O)N=[S@@](C)(=O)Cc4cc5cc(c4)OCCCCOc4cc(F)ccc4-c4nc(ncc4F)N5)C(C)C)C(=O)NCCNC(=O)CCOCCOCCOCCNC(=O)Nc4ccc(NC(=O)N[C@H](CC(=O)O)c5cccc(NS(=O)(=O)c6cccc(NC(=O)NCCC)c6)c5)cc4)cc3)c2)c1 [Compound 25] | – | – | – | – | – | – | 11 to 100 nM | 100 to 1000 nM | 11 to 100 nM | – | 11 to 100 nM | > 1000 nM | 11 to 100 nM | > 1000 nM | – | – |
| disodium 1-{(2S)-2-(carboxylatomethyl)-17-[4-({[(1R)-2-carboxylato-1-{3-[({3-[(propylcarbamoyl)amino]phenyl}sulfonyl)amino]phenyl}ethyl]carbamoyl}amino)anilino]-4,17-dioxo-7,10,13-trioxa-3,16-diazaheptadecan-1-oyl}-L-prolyl-N—[(R*)—{[15,19-difluoro-3,4-dihydro-2H,11H-10,6-(azeno)-12,16-(metheno)-1,5,11,13-benzodioxadiazacyclooctadecin-8-yl]methyl}(methyl)oxido-lambda^6-sulfanylidene]-L-valinamide [Compound 42] | – | – | – | – | – | – | ≤ 10 nM | 100 to 1000 nM | ≤ 10 nM | 100 to 1000 nM | ≤ 10 nM | > 1000 nM | ≤ 10 nM | 100 to 1000 nM | – | – |
